{
  "source": "patent US20110224221A1",
  "about": "“HEMATOPOIETIC PROTECTION AGAINST IONIZING RADIATION USING SELECTIVE CYCLIN-DEPENDENT KINASE 4/6 INHIBITORS” (priority 2008, published 2011)",
  "key": {"[1]": {"test_system": "TyrRAS+Ink4a/Arf−/− melanoma", "experiment": "Tumor growth in Tyr-RAS+Ink4a/Arf−/− melanoma GEMM under daily treatment", "assay_type": "in vivo, mice", "description": "Animals: All mice were housed in accord with the University of North Carolina at Chapel Hill (UNC-CH) Institutional Animal Care and Use Committee. Young adult (6-12 weeks of age), virgin female C57B1/6 mice were purchased from Jackson Labs (Bar Harbor, Me., United States of America). C3H mice were obtained from Harlan Sprague-Dawley Inc. (Indianapolis, Ind., United States of America). Experiments on tumor-bearing TyrRAS+Ink4a/Arf−/− mice (see Chin et al., Genes & development, 11, 2822-2834 (1997)) were performed in animals fully backcrossed (N>10) to the FVB/n background. Mice were treated as previously described (see Ramsey et al., Cancer Res., 67, 4732-4741 (2007)) with PD 0332991 obtained from Pfizer Inc., (New York, N.Y., United States of America) given by oral gavage at a dose of 150 mg/kg body weight. TyrRAS+Ink4a/Arf−/− mice were serially observed until tumor development. When tumors were about 0.2 cm^2 in size, daily PD 0332991 treatment was begun. The data shown in FIGS. 2B and 2D were normalized to tumor size at the time of therapy initiation. Tumor-bearing mice were euthanized at the indicated times for morbidity, tumor ulceration, or tumor size >1.5 cm in diameter.\nSee Walker et al., Genes Chromosomes Cancer, 22, 157-163 (1998); and Daniotti et al., Oncogene, 23, 5968-5977 (2004). […]"}, "[2]": {"test_system": "bone marrow mononuclear cells (BM-MNCs)", "experiment": "Cobblestone area-forming cell (CAFC) assay", "assay_type": "cell-based, mice", "conditions": "daily oral gavage for 2 days prior to bone marrow harvest", "experimental": "CAFCs are per 1×10^5 bone marrow mononuclear cells (BM-MNCs). Error bars are +/− the standard error of the mean of pooled samples measured in duplicate.\nCobblestone Area-forming Cell (CAFC) Assay: The CAFC assay was performed as described previously. See Meng et al., Cancer Res., 63, 5414-5419 (2003). Briefly, bone marrow was harvested from femurs and tibias of mice and centrifuged to purify BM-MNCs. The frequencies of CAFC were determined at weekly intervals (on day 7, 14, and 35). Wells were scored positive if at least one phase-dark hematopoietic clone (containing 5 or more cells) was seen. The frequency of CAFC was then calculated by using Poisson statistics as described."}, "[3]": {"test_system": "mice exposed to total body irradiation", "experiment": "Survival after total body irradiation (TBI)", "assay_type": "in vivo", "description": "For TBI experiments, mice were irradiated using a ^137Cs source (AECL Gammacell 40 Irradiator, Atomic Energy of Canada Ltd, Mississauga, Ontario, Canada). Delivered doses were at or near the empirically determined LD90 of 7.5 Gy, consistent with prior studies. See Na Nakorn et al., J. Clin. Invest., 109, 1579-1585 (2002); Herodin et al., Blood, 101, 2609-2616 (2003); Uckun et al., Blood, 75, 638-645 (1990); and Wang et al., Proc. Natl. Acad. Sci., USA, 94, 14590-14595 (1997). Peripheral blood was collected using a tail vein nick for complete blood cells (CBCs) and analyzed with a HemaTrue analyzer (Heska Co., Loveland, Colo., United States of America).\nAdult female C57Bl/6 mice were exposed to 6.5, 7.5, or 8.5 Gy with or without PD0332991 treatment and followed for 40 days post-TBI. The LD90 for IR was determined to be about 7.5 Gy. […] See FIGS. 14A for C3H and FIG. 2E for FVB/n. […] It appears that PQ resulting from transient CDK4/6 inhibition around the time of TBI enhances radioresistance in vivo.\nMore particularly, animals were given a CDK4/6 inhibitor at different times relative to TBI at the LD90. As radioprotection was observed when animals were treated with two doses pre- and one dose post-TBI (see FIGS. 13A-13B), further studies were undertaken to determine which of these doses was most important for radioprotection. Without being bound to any one theory, it appeared that most of the benefit of the treatment schedule was associated PD 0332991 treatment immediately prior to or contemporaneous with TBI. […] Although there are a few known compounds that protect from radiotoxicity when administered prior to IR (i.e. “radioprotectants”) (see Burdelya et al., Science, 320, 226-230 (2008); and Weiss and Landauer, Int J. Radiat. Biol., 85, 539-573 (2009)), previous to the presently disclosed subject matter, no known hematologic “radiomitigants” (i.e., compounds that reduce hematotoxicity when administered many hours after an exposure to TBI) are believed to have been reported."}, "[4]": {"conditions": "8.5 Gy TBI, single dose four hours prior to IR"}},
  "note": "Entries after “also recorded” stand apart in the source; their conditions may differ.",
  "data": [
    {"molecule": "CC(=O)c1c(C)c2cnc(Nc3ccc(N4CCNCC4)cn3)nc2n(C2CCCC2)c1=O", "note": "[PD0332991, 6-acetyl-8-cyclopentyl-5-methyl-2-(5-piperazin-1-yl-pyridin-2-ylamino)-8H-pyrido-[2,3-d]-pyrimidin-7-one]", "values": [
      {"measurement": "mice that developed new tumors while receiving treatment", "setting": "[1]; 150 mg/kg daily, in the 8-16 days", "value": "two of five"},
      {"measurement": "growth of established tumors", "setting": "[1]; 150 mg/kg oral gavage daily, tumor-bearing Tyr-RAS+Ink4a/Arf−/− mice", "value": "no regression or decrease in tumor growth; also recorded: insensitive"},
      {"measurement": "in vivo HSPC number (CAFC)", "setting": "[2]", "value": "did not decrease in vivo HSPC number"},
      {"measurement": "survival", "setting": "[3]; 6.5 Gy", "value": "All mice survived"},
      {"measurement": "survival", "setting": "[3]; 7.5 Gy, C57Bl/6, followed 40 days post-TBI", "value": "all treated mice survived"},
      {"measurement": "survival", "setting": "[3]; 7.5 Gy, multiple doses around IR, within 40 days", "value": "~100", "unit": "%"},
      {"measurement": "survival", "setting": "[3]; 7.5 Gy, single dose 4 hours prior to IR", "value": "Enhanced survival; also recorded: survival similar to animals treated on the multi-dose"},
      {"measurement": "survival", "setting": "[3]; 7.5 Gy, single dose 20 hours after TBI", "value": "significantly enhanced"},
      {"measurement": "survival", "setting": "[3]; 7.5 Gy, single time 0 dose", "value": "survival similar to animals treated on the multi-dose"},
      {"measurement": "median survival", "setting": "[3]; [4]", "value": 19, "unit": "days"},
      {"measurement": "term survival", "setting": "[3]; [4]", "value": 13, "unit": "%"},
      {"measurement": "term survival", "setting": "[3]; 8.5 Gy TBI, single dose four hours prior to IR, listed as PD 0332991", "value": "about 30%"}
    ]}
  ]
}
